Test results from ChEMBL document CHEMBL1127438, “Substituted (S)-phenylpiperidines and rigid congeners as preferential dopamine autoreceptor antagonists: synthesis and structure-activity relationships” (J Med Chem, 1994).
Where “and” joins values, the source holds several entries; their conditions need not be identical. Equal values may be shown once.

Key:
D(3) dopamine receptor = D(3) dopamine receptor (Homo sapiens, UniProt P35462); test: Tested for in vitro binding affinity against cloned mammalian dopamine D3 receptor, expressed in CHO-K1 cells, using [3H]spiperone as radioligand; type: cell-based
Rattus norvegicus [1] = test: Compound is evaluated for DOPA accumulation (DOPAacc) level in nonhabituated rats after subcuteneous dose (100 uM/kg) in rat striatum; type: functional
Rattus norvegicus [2] = test: Compound is evaluated biochemically in nonhabituated rats for (100 umol/kg) subcuteneous dose, Value expressed as locomotor activity (LMA); type: functional
D(2) dopamine receptor [3] = target: D(2) dopamine receptor (Rattus norvegicus, UniProt P61169)
Description: Affinity against striatal dopamine D2 receptors using [3H]spiperone as radioligand in rats.

D(2) dopamine receptor [4] = target: T1, D(2) dopamine receptor (Homo sapiens, UniProt P14416); test: biochemical
Description: Affinity against recombinant dopamine receptor (DA) D2 expressed in CHO-K1 cells, using [3H]-spiperone as radioligand

D(2) dopamine receptor [5] = target: T1, D(2) dopamine receptor; test: biochemical; remark: listed apart in the source
Description: In vitro binding affinity against cloned mammalian dopamine D2 autoreceptor, expressed in CHO-K1 cells, using [3H]U-86170 as radioligand

Dopamine receptor = test: Tested for in vitro binding affinity against cloned mammalian dopamine autoreceptor (DA) receptors expressed in CHO-K1 cells using [3H]U-86170 as radioligand; type: cell-based
Rattus norvegicus [6] = test: Compound is evaluated for biochemical accumulation of DOPAC in nonpretreated habituated rats for subcuteneous dose of 100 micro mol/kg in rat striatum; type: functional
Rattus norvegicus [7] = test: Effect (60 min after administration of 200 (micro mol/kg) subcuteneous dose on DA release in brain dialysis model of rat striatum; type: functional
Rattus norvegicus [8] = test: Compound is evaluated for locomotor activity in reserpine-pretreated habituated rats at 100 umol/kg of subcuteneous dose; type: functional
Rattus norvegicus [9] = species: Rattus norvegicus; test: Compound is tested for concomitant ability to antagonize the locomotor activity induced by Di-Pr-5,6-ADTN; type: functional
Rattus norvegicus [10] = test: Evaluated for locomotor activity in nonpretreated habituated rats at 100 umol/kg of subcuteneous dose; type: functional; set-up: unit not given here

T1 sequence (P14416 whole entry): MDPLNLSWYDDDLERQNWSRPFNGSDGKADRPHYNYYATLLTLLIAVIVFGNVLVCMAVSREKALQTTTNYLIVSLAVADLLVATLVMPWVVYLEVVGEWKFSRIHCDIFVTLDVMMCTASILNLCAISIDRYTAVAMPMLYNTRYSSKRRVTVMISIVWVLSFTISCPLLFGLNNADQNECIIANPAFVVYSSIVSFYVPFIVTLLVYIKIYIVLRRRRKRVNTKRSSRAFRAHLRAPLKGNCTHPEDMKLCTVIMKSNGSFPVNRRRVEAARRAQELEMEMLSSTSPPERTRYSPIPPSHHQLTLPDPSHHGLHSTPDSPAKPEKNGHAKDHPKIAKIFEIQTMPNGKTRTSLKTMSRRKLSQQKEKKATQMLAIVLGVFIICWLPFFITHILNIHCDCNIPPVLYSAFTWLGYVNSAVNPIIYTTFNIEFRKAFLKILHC
Sequence of D(2) dopamine receptor (Rattus norvegicus, UniProt P61169) (P61169 whole entry): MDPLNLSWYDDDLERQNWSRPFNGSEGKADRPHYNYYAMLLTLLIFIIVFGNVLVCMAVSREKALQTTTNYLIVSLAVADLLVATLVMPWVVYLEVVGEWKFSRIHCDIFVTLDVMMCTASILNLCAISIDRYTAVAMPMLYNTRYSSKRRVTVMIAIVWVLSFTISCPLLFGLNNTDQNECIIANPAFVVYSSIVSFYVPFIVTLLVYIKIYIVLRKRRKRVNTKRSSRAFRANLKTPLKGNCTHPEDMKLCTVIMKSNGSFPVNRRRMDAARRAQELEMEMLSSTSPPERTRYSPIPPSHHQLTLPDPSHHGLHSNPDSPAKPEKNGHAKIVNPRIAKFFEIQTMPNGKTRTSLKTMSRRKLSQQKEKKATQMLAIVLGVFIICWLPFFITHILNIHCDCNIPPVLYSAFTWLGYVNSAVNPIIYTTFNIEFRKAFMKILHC
Sequence of D(3) dopamine receptor (P35462 whole entry): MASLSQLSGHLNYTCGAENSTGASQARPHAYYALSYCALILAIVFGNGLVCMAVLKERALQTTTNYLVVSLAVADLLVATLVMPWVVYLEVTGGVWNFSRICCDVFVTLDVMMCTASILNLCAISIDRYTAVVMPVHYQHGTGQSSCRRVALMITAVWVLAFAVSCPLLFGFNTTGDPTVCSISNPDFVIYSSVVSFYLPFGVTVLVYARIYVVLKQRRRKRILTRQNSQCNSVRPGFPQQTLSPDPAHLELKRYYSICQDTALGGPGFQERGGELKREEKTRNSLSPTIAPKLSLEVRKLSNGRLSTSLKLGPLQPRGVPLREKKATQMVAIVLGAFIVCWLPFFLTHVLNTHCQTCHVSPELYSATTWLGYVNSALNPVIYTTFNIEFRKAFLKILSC

Ki (Dopamine receptor) [µM]	Structure (SMILES)	Ki (D(3) dopamine receptor) [µM]	Control (Rattus norvegicus [1]) [%]	Control (Rattus norvegicus [2]) [%]	Ki (D(2) dopamine receptor [3]) [µM]	Ki (D(2) dopamine receptor [4]) [µM]	Ki (D(2) dopamine receptor [5]) [µM]	Activity (Rattus norvegicus [6])	Activity (Rattus norvegicus [7]) [%]	LMA (Rattus norvegicus [8])	LMA (Rattus norvegicus [9]) [%]	LMA (Rattus norvegicus [10])
	CCCN1CCC[C@@H](c2cccc(OCC(F)(F)F)c2)C1	1.41	96	90	1.67	> 0.217	0.82					
0.04	CCCN1CCC[C@@H](c2cccc(OS(=O)(=O)C(F)(F)F)c2)C1							264% and 89%	223	26	78	290
